Consider 10 compounds from patent US20250340574A1, “MODULATORS OF CYSTIC FIBROSIS TRANSMEMBRANE CONDUCTANCE REGULATOR” (Vertex Pharmaceuticals Incorporated, priority 2022, published 2025).

Read-outs that look alike come from different tables or passages of the source.

The conditions of series [1]: amide bond, 13-membered ring, DMF.
Series [2] addresses T1, CFTR (F508del/MF-HBE cells) (Homo sapiens, UniProt P13569, DEL508-508).
T1 construct: human bronchial epithelial (HBE) cells derived from CF subjects heterozygous for F508del and a minimal function CFTR mutation (F508del/MF-HBE); endogenous in cells; host or cells: Primary human bronchial epithelial cells from CF subjects (F508del/MF genotype), differentiated at an air-liquid interface
Kind of series: Ussing chamber assay of CFTR-mediated short-circuit currents, Assay A (0.1 μM to 25 μM, 6 concentrations). The class given is cell-based. The conditions noted are these: with 33 nM potentiator and 18 μM Tezacaftor, 20% human serum; for Emax: 18-24 hours, read-out: A Max activity (%). The procedure, abridged: (§1)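 F508del/MF-HBE cells grown at air-liquid interface were incubated 18-24 h at 37 °C in 20% human serum with correctors plus 18 μM tezacaftor and a fixed partner compound (33 nM for concentration series, 44 nM at 1 μM). ISC was read at 0 mV after 20 μM forskolin, minus the post-inhibitor current.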

Series [3] deals with T1, CFTR (F508del/MF-HBE cells). Kind of series: Ussing chamber assay of CFTR-mediated short-circuit currents, Assay C (0.026 μM to 25 μM, 6 concentrations). The class given is cell-based. As to conditions: with 33 nM potentiator and 18 μM Tezacaftor, 20% human serum; for Emax: read-out: C Max activity (%). Put shortly: as §1
Series [4] shares this target. Kind of series: Ussing chamber assay of CFTR-mediated short-circuit currents, Assay D (single concentration of 1 μM). The class given is cell-based. As to conditions: with 44 nM potentiator and 18 μM Tezacaftor, 20% human serum; for D activity at 1 μM (%): 18-24 hours. Put shortly: as §1

T1 sequence (P13569 with tags, fused parts or gaps DEL508-508): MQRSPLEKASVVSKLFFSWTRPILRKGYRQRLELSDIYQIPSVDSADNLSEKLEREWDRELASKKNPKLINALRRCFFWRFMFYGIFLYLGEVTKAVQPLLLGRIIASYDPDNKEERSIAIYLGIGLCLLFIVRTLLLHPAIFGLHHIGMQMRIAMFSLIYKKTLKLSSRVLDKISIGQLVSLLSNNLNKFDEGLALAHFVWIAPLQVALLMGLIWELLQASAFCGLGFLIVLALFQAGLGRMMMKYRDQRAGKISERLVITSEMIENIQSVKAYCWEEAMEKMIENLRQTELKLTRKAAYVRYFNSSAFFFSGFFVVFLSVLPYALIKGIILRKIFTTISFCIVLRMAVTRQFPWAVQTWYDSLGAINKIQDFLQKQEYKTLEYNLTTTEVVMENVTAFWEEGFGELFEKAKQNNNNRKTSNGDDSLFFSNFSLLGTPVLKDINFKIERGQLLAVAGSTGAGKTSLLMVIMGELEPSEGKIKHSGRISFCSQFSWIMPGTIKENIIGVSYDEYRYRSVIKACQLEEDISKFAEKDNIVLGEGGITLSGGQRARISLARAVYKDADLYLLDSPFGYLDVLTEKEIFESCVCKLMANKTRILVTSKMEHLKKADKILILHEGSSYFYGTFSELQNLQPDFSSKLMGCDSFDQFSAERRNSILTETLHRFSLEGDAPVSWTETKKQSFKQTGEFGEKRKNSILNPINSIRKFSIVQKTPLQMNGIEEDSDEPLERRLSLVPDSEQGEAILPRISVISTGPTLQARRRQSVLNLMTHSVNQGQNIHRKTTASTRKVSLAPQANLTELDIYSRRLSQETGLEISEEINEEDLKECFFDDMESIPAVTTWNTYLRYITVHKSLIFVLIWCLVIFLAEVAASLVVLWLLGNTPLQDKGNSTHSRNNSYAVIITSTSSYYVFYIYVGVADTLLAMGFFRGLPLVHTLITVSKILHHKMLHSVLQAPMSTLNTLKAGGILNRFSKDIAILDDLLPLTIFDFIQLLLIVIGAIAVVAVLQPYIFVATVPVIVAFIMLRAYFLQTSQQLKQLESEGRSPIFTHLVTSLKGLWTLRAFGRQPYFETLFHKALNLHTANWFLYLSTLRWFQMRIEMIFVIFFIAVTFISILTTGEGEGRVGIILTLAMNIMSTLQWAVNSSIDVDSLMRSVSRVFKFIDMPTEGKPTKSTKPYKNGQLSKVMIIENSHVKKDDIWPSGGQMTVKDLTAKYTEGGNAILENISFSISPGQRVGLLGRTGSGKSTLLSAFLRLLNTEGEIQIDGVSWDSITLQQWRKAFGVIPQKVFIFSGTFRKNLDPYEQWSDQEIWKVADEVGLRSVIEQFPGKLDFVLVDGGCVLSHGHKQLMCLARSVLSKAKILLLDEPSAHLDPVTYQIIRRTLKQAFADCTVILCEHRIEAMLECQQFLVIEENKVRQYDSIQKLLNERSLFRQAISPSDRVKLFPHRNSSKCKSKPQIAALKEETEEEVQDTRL

For orientation: EC50 means the concentration needed to bring the measured effect to its halfway point. In the case of `Cc1cccc(C)c1-c1cc2nc(n1)NS(=O)(=O)c1cccc(c1)C(=O)N(Cc1cnc3oc(C(C)C)c(C)c3n1)[C@H](CC13CC(C1)C3)CO2` [Compound I-62, (11R)-11-(1-bicyclo[1.1.1]pentanylmethyl)-6-(2,6-dimethylphenyl)-12-[(6-isopropyl-7-methyl-furo[2,3-b]pyrazin-2-yl)methyl]-2,2-dioxo-9-oxa-2λ^6-thia-3,5,12,19-tetrazatricyclo[12.3.1.14,8]nonadeca-1(18),4(19),5,7,14,16-hexaen-13-one], the ring closure, yield after HPLC in series [1] (from Cc1cccc(C)c1-c1cc(OC[C@@H](CC23CC(C2)C3)NCc2cnc3oc(C(C)C)c(C)c3n2)nc(NS(=O)(=O)c2cccc(C(=O)O)c2)n1, CDMT/NMM, 39.5 mM, 14.0 h) was found to be 70%. In series [2], the Emax was more than 60% and the EC50 was less than 1000 nM.
For `CCc1c2nc(nc1-c1c(C)cccc1C)NS(=O)(=O)c1cccc(c1)C(=O)N(Cc1cnc3cc(C(C)(C)C)n(C)c3n1)[C@H](COC(C)C)CO2` [IV-4, (11R)-12-[(6-tert-butyl-5-methyl-pyrrolo[2,3-b]pyrazin-3-yl)methyl]-6-(2,6-dimethylphenyl)-7-ethyl-11-(isopropoxymethyl)-2,2-dioxo-9-oxa-2λ^6-thia-3,5,12,19-tetrazatricyclo[12.3.1.14,8]nonadeca-1(17),4(19),5,7,14(18),15-hexaen-13-one], in series [1] (from CCc1c(OC[C@@H](COC(C)C)NCc2cnc3cc(C(C)(C)C)n(C)c3n2)nc(NS(=O)(=O)c2cccc(C(=O)O)c2)nc1-c1c(C)cccc1C, CDMT/NMM, 10.0 mM, 25.0 °C, 3.5 h), the ring closure, yield after HPLC turned out to be 20%. For the same compound, in series [3], the EC50 was less than 1000 nM and the Emax is more than 60%. In addition, the “D act. at 1 μM (%)” value in series [4] was “+++ (+++ is >60%)”.
`Cc1cccc(C)c1-c1cc2nc(n1)NS(=O)(=O)c1cccc(c1)C(=O)N(Cc1cnc3oc(C(C)C)cc3n1)[C@H](CCC1(C)CCC1)CO2` [Compound I-13, (11R)-6-(2,6-dimethylphenyl)-12-[(6-isopropylfuro[2,3-b]pyrazin-2-yl)methyl]-11-[2-(1-methylcyclobutyl)ethyl]-2,2-dioxo-9-oxa-2λ^6-thia-3,5,12,19-tetrazatricyclo[12.3.1.14,8]nonadeca-1(18),4(19),5,7,14,16-hexaen-13-one] displayed a ring closure, yield after HPLC in series [1] (from Cc1cccc(C)c1-c1cc(OC[C@@H](CCC2(C)CCC2)NCc2cnc3oc(C(C)C)cc3n2)nc(NS(=O)(=O)c2cccc(C(=O)O)c2)n1, CDMT/NMM, 13.5 mM, 16.5 h) of 37%. In series [2], the Emax is more than 60% and the concentration for a half-maximal effect (EC50) was less than 1000 nM.
On to `Cc1cccc(COC(C)C)c1-c1nc2nc(c1C)OC[C@@H](CC(C)(C)C)N(Cc1cnc3oc(C(C)(C)C)cc3n1)C(=O)c1cccc(c1)S(=O)(=O)N2` (single isomer, unassigned) [IV-40], for which, in series [1] (from Cc1cccc(COC(C)C)c1-c1nc(NS(=O)(=O)c2cccc(C(=O)O)c2)nc(OC[C@@H](CC(C)(C)C)NCc2cnc3oc(C(C)(C)C)cc3n2)c1C, CDMT/NMM, 15.1 mM, 25.0 °C, 60.0 h), the ring closure, yield after HPLC was found to be 23%. Moreover, in series [3], the EC50 is less than 1000 nM and the Emax was more than 60%. In addition, in series [4], the “D act. at 1 μM (%)” value was “+++ (+++ is >60%)”.
Turning to `Cc1cccc(C)c1-c1cc2nc(n1)NS(=O)(=O)c1cccc(c1)C(=O)N(Cc1ncc3cc(C(C)(C)C)n(C)c3n1)[C@H](CC13CC(C1)C3)CO2` [IV-35, (11R)-11-(1-bicyclo[1.1.1]pentanylmethyl)-12-[(6-tert-butyl-7-methyl-pyrrolo[2,3-d]pyrimidin-2-yl)methyl]-6-(2,6-dimethylphenyl)-2,2-dioxo-9-oxa-2λ^6-thia-3,5,12,19-tetrazatricyclo[12.3.1.14,8]nonadeca-1(18),4(19),5,7,14,16-hexaen-13-one], the ring closure, yield after HPLC in series [1] (from Cc1cccc(C)c1-c1cc(OC[C@@H](CC23CC(C2)C3)NCc2ncc3cc(C(C)(C)C)n(C)c3n2)nc(NS(=O)(=O)c2cccc(C(=O)O)c2)n1, CDMT/NMM, 9.95 mM, 25.0 °C, 16.5 h) was 27%. In series [3], the EC50 is less than 1000 nM and the Emax was more than 60%. The “D act. at 1 μM (%)” value in series [4] is “+++ (+++ is >60%)”.
In series [1] (from CCC(CC)[C@H](COc1cc(-c2c(C)cccc2C)nc(NS(=O)(=O)c2cccc(C(=O)O)c2)n1)NCc1cnc2oc(C(C)(C)C)cc2n1, CDMT/NMM, 11.1 mM, 25.0 °C, 18.0 h), `CCC(CC)[C@@H]1COc2cc(-c3c(C)cccc3C)nc(n2)NS(=O)(=O)c2cccc(c2)C(=O)N1Cc1cnc2oc(C(C)(C)C)cc2n1` [IV-48, (11R)-12-[(6-tert-butylfuro[2,3-b]pyrazin-2-yl)methyl]-6-(2,6-dimethylphenyl)-11-(1-ethylpropyl)-2,2-dioxo-9-oxa-2λ^6-thia-3,5,12,19-tetrazatricyclo[12.3.1.14,8]nonadeca-1(18),4,6,8(19),14,16-hexaen-13-one] returned a ring closure, yield after HPLC of 52%. Also, in series [3], the 50% effective concentration (EC50) was in the range of 1000 to 3000 nM and the Emax was more than 60%. Further, the “D act. at 1 μM (%)” value in series [4] is listed as “+++ (+++ is >60%)”.
Consider `Cc1cccc(C)c1-c1cc2nc(n1)NS(=O)(=O)c1cccc(c1)C(=O)N(Cc1nc3cc(C4(C)CC4)oc3cc1F)[C@H](CC1(C)CC1)CO2` [Compound I-234, (11R)-6-(2,6-Dimethylphenyl)-12-[[6-fluoro-2-(1-methylcyclopropyl)furo[3,2-b]pyridin-5-yl]methyl]-11-[(1-methylcyclopropyl)methyl]-2,2-dioxo-9-oxa-2λ^6-thia-3,5,12,19-tetrazatricyclo[12.3.1.14,8]nonadeca-1(18),4(19),5,7,14,16-hexaen-13-one], for which the ring closure, yield after HPLC in series [1] (from Cc1cccc(C)c1-c1cc(OC[C@@H](CC2(C)CC2)NCc2nc3cc(C4(C)CC4)oc3cc2F)nc(NS(=O)(=O)c2cccc(C(=O)O)c2)n1, CDMT/NMM, 25.0 °C) is 57%. Further, the “D activity at 1 μM (%)” value in series [4] is “+++ (+++ is >60%)”.
As for `Cc1cccc(C)c1-c1cc2nc(n1)NS(=O)(=O)c1cccc(c1)C(=O)N(Cc1cnc3oc(C(C)(C)C)cc3n1)[C@H](C[C@H]1CCCCO1)CO2` [Compound I-220, (11R)-12-[(6-tert-Butylfuro[2,3-b]pyrazin-2-yl)methyl]-6-(2,6-dimethylphenyl)-2,2-dioxo-11-[[(2R)-tetrahydropyran-2-yl]methyl]-9-oxa-2λ^6-thia-3,5,12,19-tetrazatricyclo[12.3.1.14,8]nonadeca-1(18),4(19),5,7,14,16-hexaen-13-one], the ring closure, yield after HPLC in series [1] (from Cc1cccc(C)c1-c1cc(OC[C@@H](C[C@H]2CCCCO2)NCc2cnc3oc(C(C)(C)C)cc3n2)nc(NS(=O)(=O)c2cccc(C(=O)O)c2)n1, CDMT/DIEA, 11.6 mM, 48.0 h) amounted to 70%. Further, in series [4], the “D activity at 1 μM (%)” value was “+++ (+++ is >60%)”.
With `Cc1cccc(C)c1-c1cc2nc(n1)NS(=O)(=O)c1cccc(c1)C(=O)N(Cc1cnc3cc(C(C)(C)C)n(C)c3n1)[C@H](CC1(C)CC1)CO2` [Compound I-187, (11R)-12-[(6-tert-Butyl-5-methyl-pyrrolo[2,3-b]pyrazin-3-yl)methyl]-6-(2,6-dimethylphenyl)-11-[(1-methylcyclopropyl)methyl]-2,2-dioxo-9-oxa-2λ^6-thia-3,5,12,19-tetrazatricyclo[12.3.1.14,8]nonadeca-1(18),4(19),5,7,14,16-hexaen-13-one], the ring closure, yield after HPLC in series [1] (from Cc1cccc(C)c1-c1cc(OC[C@@H](CC2(C)CC2)NCc2cnc3cc(C(C)(C)C)n(C)c3n2)nc(NS(=O)(=O)c2cccc(C(=O)O)c2)n1, CDMT/NMM, 22.5 mM, 4.0 h) is 41%. For the same compound, in series [3] (18-24 hours), the Emax was more than 60%. In addition, the half-maximal effective concentration (EC50) in series [3] is less than 1000 nM. Further, the “D activity at 1 μM (%)” value in series [4] is reported as “+++ (+++ is >60%)”.
In series [1] (from Cc1cccc(C)c1-c1cc(OC[C@@H](CC23CC(C2)C3)NCc2cnc3cc(C4(C)CC4)n(C)c3n2)nc(NS(=O)(=O)c2cccc(C(=O)O)c2)n1, CDMT/NMM, 25.0 °C), `Cc1cccc(C)c1-c1cc2nc(n1)NS(=O)(=O)c1cccc(c1)C(=O)N(Cc1cnc3cc(C4(C)CC4)n(C)c3n1)[C@H](CC13CC(C1)C3)CO2` [Compound I-227, (11R)-11-(1-Bicyclo[1.1.1]pentanylmethyl)-6-(2,6-dimethylphenyl)-12-[[5-methyl-6-(1-methylcyclopropyl)pyrrolo[2,3-b]pyrazin-3-yl]methyl]-2,2-dioxo-9-oxa-2λ^6-thia-3,5,12,19-tetrazatricyclo[12.3.1.14,8]nonadeca-1(18),4(19),5,7,14,16-hexaen-13-one] displayed a ring closure, yield after HPLC of 66%. Moreover, the Emax in series [3] (18-24 hours) was more than 60%. Also, the EC50 in series [3] was less than 1000 nM. Also, the “D activity at 1 μM (%)” value in series [4] was “+++ (+++ is >60%)”.
